Measurements reported in US12371459B2, “Antimicrobial peptide derived from Pseudin-2 peptide and uses thereof” (INDUSTRY-ACADEMIC COOPERATION FOUNDATION, CHOSUN UNIVERSITY, priority 2019, dated 2025).
Ends that are not written are not given here.

Experiments:
[1] = test system: erythrocytes of a mouse (Balb/c); test: Erythrocyte hemolytic activity; settings: 1 hour at 37° C.
Experimental: To compare the cytotoxicity among the peptides that are produced by the method of Example 1, erythrocyte hemolytic activity of the synthesized peptide was measured.
After that, the amount of hemoglobin contained in a supernatant collected by centrifuge at 1,000×g was determined by measuring the absorbance at a wavelength of 414 nm. As a control to be used as a reference for cell disruption level, the supernatant collected by a treatment with 1% Triton X-100 (Sigma, USA) and a reaction for 1 hour at 37° C. was used to measure the absorbance. By setting the resulting absorbance value at 100% of the erythrocyte hemolytic activity, hemolysis of each peptide was calculated using the following equation 1. Erythrocyte disrupting ability (%)=(Absorbance A−Absorbance B)/(Absorbance C−Absorbance B)×100 Equation 1 (in the above equation, Absorbance A indicates the absorbance of a reaction solution treated with each peptide, in which the absorbance is measured at a wavelength of 414 nm; Absorbance B indicates the absorbance of a reaction solution treated with PBS, in which the absorbance is measured at a wavelength of 414 nm; and Absorbance C indicates the absorbance of a reaction solution treated with 1% Triton X-100, in which the absorbance is measured at a wavelength of 414 nm).

[2] = Cytotoxicity in normal cell line (MTT); settings: human, HaCaT keratinocyte cells
Experimental: To determine the cytotoxicity of the peptides produced by the method of Example 1 in normal cell line, cytotoxicity was measured by using human keratinocyte cell line (HaCaT cell line, Dr. N E. Fusenig, Heidelberg, Germany).
Specifically, HaCaT cells, which have been cultured in DMEM medium containing 10% FBS (fetal bovine serum), were aliquoted in a microtiter plate to have 2×10^5 cells per well. […] Twenty-four hours later, a reaction solution containing 0.5 mg/ml MTT (thiazolyl blue tetrazolium bromide) dissolved in phosphate buffered saline (PBS) was added in an amount of 100 μl to each well and the reaction was allowed to occur for 4 hours. After that, the supernatant was discarded, and, by dissolving MTT crystals that are formed by adding 200 μl DMSO (dimethyl sulfoxide), the absorbance at 560 nm was measured to determine the cell survival ability.

[3] = test system: Staphylococcus aureus CCARM 3090 (tolerance to antibiotics)
Source text: (§1) To compare the antimicrobial activity among the peptides produced by the method of Example 1, the inventors of the present invention measured the minimal growth inhibitory concentration (MIC), which is minimum concentration of the peptide not allowing any […] of bacterial cells.
(§2) Specifically, the bacterial strains described in the following Table 2 were purchased and cultured to a mid-log phase in a medium that is appropriate for each strain. […] After the addition to a plate, the cells were cultured for 18 hours at 37° C. […] As a control, Pseudin-2 as a mother peptide was used.

[4] = test system: Staphylococcus aureus CCARM 3518 (tolerance to antibiotics)
Source text: as §1, §2

[5] = test system: Bacillus subtilis KCTC 1998; settings: KCTC 1998, 18 h
Source text: as §1, §2

[6] = test system: Pseudomonas aeruginosa ATCC 27853; settings: ATCC 27853, 18 h
Source text: as §1, §2

[7] = test system: Escherichia coli CCARM 1229 (tolerance to antibiotics)
Source text: as §1, §2

[8] = test system: Pseudomonas aeruginosa isolated strain 4007 (tolerance to antibiotics)
Source text: as §1, §2

[9] = test system: Trichosporon beigelii KCTC 7707; settings: KCTC 7707, 18 h
Source text: as §1, §2

[10] = test system: Pseudomonas aeruginosa isolated strain 4891 (tolerance to antibiotics)
Source text: as §1, §2

[11] = test system: Escherichia coli ATCC 25922; settings: ATCC 25922, 18 h
Source text: as §1, §2

[12] = test system: Candida albicans KCTC 7270; settings: KCTC 7270, 18 h
Source text: as §1, §2

[13] = test system: Staphylococcus aureus ATCC 25923; settings: ATCC 25923, 18 h
Source text: as §1, §2

[14] = test system: Salmonella typhimurium KCTC 1926; settings: KCTC 1926, 18 h
Source text: as §1, §2

[15] = test system: Listeria monocytogenes KCTC 3710; settings: KCTC 3710, 18 h
Source text: as §1, §2

[16] = test system: Escherichia coli CCARM 1238 (tolerance to antibiotics)
Source text: as §1, §2

Work on “GLNALKKVSQGIHEAIKLINNHVQ-NH2 [Pse-Anal5]” yielded an Erythrocyte disrupting ability ([1]; peptide concentration 3.13 μM) of 0%, an Erythrocyte disrupting ability ([1]; peptide concentration 6.25 μM) of 0.7% and an Erythrocyte disrupting ability ([1]; peptide concentration 12.5 μM) of 2.3%. It also gave an Erythrocyte disrupting ability ([1]; peptide concentration 25 μM) of 5.9%, an Erythrocyte disrupting ability ([1]; peptide concentration 50 μM) of 11.7% and an Erythrocyte disrupting ability ([1]; peptide concentration 100 μM) of 20.1%. It also gave a viability at 24 h, 3.13 µM [2] of 100%, a viability at 24 h, 6.25 µM [2] of 100% and a viability at 24 h, 12.5 µM [2] of 100%. For the same substance, the viability at 24 h, 25 µM [2] was 100%, the viability at 24 h, 50 µM [2] was 96.3% and the viability at 24 h, 100 µM [2] was 83.5%.
For “WLNALKKVFQGIHEAIKLIWNWVQ-NH2 [Pse-Anal3]”, the viability at 24 h, 3.13 µM ([2]; Cell survival ability) was 55.4%, the viability at 24 h, 6.25 µM ([2]; Cell survival ability) was 45.8% and the viability at 24 h, 12.5 µM ([2]; Cell survival ability) was 25.6%. It also gave a viability at 24 h, 25 µM ([2]; Cell survival ability) of 24.1%, a viability at 24 h, 50 µM ([2]; Cell survival ability) of 13.6% and a viability at 24 h, 100 µM ([2]; Cell survival ability) of 10.8%. For the same substance, the Minimal inhibitory concentration [3] was 32 µM, the Minimal inhibitory concentration [4] was 32 µM and the Minimal inhibitory concentration [5] was 32 µM. The Minimal inhibitory concentration [6] was 16 µM, the Minimal inhibitory concentration [7] was 32 µM and the Minimal inhibitory concentration [8] was 64 µM. For the same substance, the Minimal inhibitory concentration [9] was 32 µM, the Minimal inhibitory concentration [10] was 64 µM and the Minimal inhibitory concentration [11] was 16 µM. For the same substance, the Minimal inhibitory concentration [12] was 32 µM, the Minimal inhibitory concentration [13] was 32 µM and the Minimal inhibitory concentration [14] was 16 µM. For the same substance, the Minimal inhibitory concentration [15] was 32 µM and the Minimal inhibitory concentration [16] was 32 µM.
“WLNALKKVFQGIHEAIKLINNHVQ-NH2 [Pse-Anal1]” gave an Erythrocyte disrupting ability ([1]; peptide concentration 3.13 μM) of 50.9%, an Erythrocyte disrupting ability ([1]; peptide concentration 6.25 μM) of 58.6% and an Erythrocyte disrupting ability ([1]; peptide concentration 12.5 μM) of 68.9%. The Erythrocyte disrupting ability ([1]; peptide concentration 25 μM) was 82.0%, the Erythrocyte disrupting ability ([1]; peptide concentration 50 μM) was 93.5% and the Erythrocyte disrupting ability ([1]; peptide concentration 100 μM) was 100%. The viability at 24 h, 3.13 µM [2] was 80.1%, the viability at 24 h, 6.25 µM [2] was 35.2% and the viability at 24 h, 12.5 µM [2] was 26.8%. For the same substance, the viability at 24 h, 25 µM [2] was 15.9%, the viability at 24 h, 50 µM [2] was 13.6% and the viability at 24 h, 100 µM [2] was 1.8%.
Work on “ALNALKKVSQGIHEAIKLIANHVQ-NH2 [Pse-Anal7]” yielded a viability at 24 h, 3.13 µM ([2]; Cell survival ability) of 100%, a viability at 24 h, 6.25 µM ([2]; Cell survival ability) of 100% and a viability at 24 h, 12.5 µM ([2]; Cell survival ability) of 100%. It also gave a viability at 24 h, 25 µM ([2]; Cell survival ability) of 100%, a viability at 24 h, 50 µM ([2]; Cell survival ability) of 100% and a viability at 24 h, 100 µM ([2]; Cell survival ability) of 100%. For the same substance, the Minimal inhibitory concentration [3] was 32 µM, the Minimal inhibitory concentration [4] was 32 µM and the Minimal inhibitory concentration [5] was 16 µM. For the same substance, the Minimal inhibitory concentration [6] was 8 µM, the Minimal inhibitory concentration [7] was 16 µM and the Minimal inhibitory concentration [8] was 32 µM. For the same substance, the Minimal inhibitory concentration [9] was 32 µM, the Minimal inhibitory concentration [10] was 32 µM and the Minimal inhibitory concentration [11] was 8 µM. For the same substance, the Minimal inhibitory concentration [12] was 32 µM, the Minimal inhibitory concentration [13] was 16 µM and the Minimal inhibitory concentration [14] was 8 µM. For the same substance, the Minimal inhibitory concentration [15] was 16 µM and the Minimal inhibitory concentration [16] was 16 µM.
For “GLNALKKVSQGIHESIKLINNHVQ-NH2 [Pse-Anal6]”, the viability at 24 h, 3.13 µM ([2]; Cell survival ability) was 100%, the viability at 24 h, 6.25 µM ([2]; Cell survival ability) was 100% and the viability at 24 h, 12.5 µM ([2]; Cell survival ability) was 100%. For the same substance, the viability at 24 h, 25 µM ([2]; Cell survival ability) was 100%, the viability at 24 h, 50 µM ([2]; Cell survival ability) was 100% and the viability at 24 h, 100 µM ([2]; Cell survival ability) was 92.1%. It also gave a Minimal inhibitory concentration [3] of 64 µM, a Minimal inhibitory concentration [4] of 64 µM and a Minimal inhibitory concentration [5] of 32 µM. It also gave a Minimal inhibitory concentration [6] of 16 µM, a Minimal inhibitory concentration [7] of 64 µM and a Minimal inhibitory concentration [8] of 64 µM. The Minimal inhibitory concentration [9] was 64 µM, the Minimal inhibitory concentration [10] was 64 µM and the Minimal inhibitory concentration [11] was 16 µM. It also gave a Minimal inhibitory concentration [12] of 64 µM, a Minimal inhibitory concentration [13] of 32 µM and a Minimal inhibitory concentration [14] of 16 µM. For the same substance, the Minimal inhibitory concentration [15] was 32 µM and the Minimal inhibitory concentration [16] was 64 µM.
With “GLNALKKVFQGIHEAIKKINNHVQ-NH2 [Pse-18L-K]” the Erythrocyte disrupting ability ([1]; peptide concentration 3.13 μM) was 2.4%, the Erythrocyte disrupting ability ([1]; peptide concentration 6.25 μM) was 3.4% and the Erythrocyte disrupting ability ([1]; peptide concentration 12.5 μM) was 5.4%. It also gave an Erythrocyte disrupting ability ([1]; peptide concentration 25 μM) of 12.5%, an Erythrocyte disrupting ability ([1]; peptide concentration 50 μM) of 24.2% and an Erythrocyte disrupting ability ([1]; peptide concentration 100 μM) of 36.7%. The viability at 24 h, 3.13 µM [2] was 100%, the viability at 24 h, 6.25 µM [2] was 100% and the viability at 24 h, 12.5 µM [2] was 100%. The viability at 24 h, 25 µM [2] was 100%, the viability at 24 h, 50 µM [2] was 100% and the viability at 24 h, 100 µM [2] was 81.5%.
